Measured values published in publication PMC6858373 (Scientific Reports, 2019).
Where two headings read alike, the source gives them in different places.

How the values were obtained:
[1] = target: T1, FGF14:Nav1.6 C-tail complex (Homo sapiens, UniProt Q92915+Q9UQD0); assay: Split-luciferase complementation assay (LCA) in Clone V double stable HEK293 cells; type: cell-based; details: for Split Luciferase Assay Z-score Set 1 / Split Luciferase Assay % Lum Set 1 / Split Luciferase Assay Z-score Set 2 / Split Luciferase Assay %Lum Set 2: CC_NCI screening; for Split Luciferase Assay Z-score Set 1 / Split Luciferase Assay % Lum Set 1: biological replicate Set 1; for Split Luciferase Assay Z-score Set 1 / Split Luciferase Assay Z-score Set 2: normalized to on-plate 0.3% DMSO controls; for Split Luciferase Assay % Lum Set 1 / Split Luciferase Assay %Lum Set 2: normalized to on-plate 0.3% DMSO controls (n=16 per plate); for Split Luciferase Assay Z-score Set 2 / Split Luciferase Assay %Lum Set 2: biological replicate Set 2; for Split Luciferase Assay %Lum Avg: average of Set 1 and Set 2, normalized to 0.3% DMSO controls
T1 construct: polymerase chain reaction (PCR) amplification of the FGF14 open reading frame (nt 1–855); C-terminal fragment of Nav1.6 (amino acids 1763–1976) fused with CD4ΔC-tail (amino acids 1–395); expressed in transfected cells

in vitro = details: human, Clone V cells
Clone V cells = assay: CellTiter Blue (CTB) cell viability counter-screen; details: CC_NCI screening; normalized to on-plate 0.3% DMSO controls
[2] = target: full-length P. pyralis luciferase (Photinus pyralis, UniProt P08659, K549A/L550V/N119G/N50D/S548I); type: cell-based; details: CC_NCI screening; normalized to on-plate 0.3% DMSO controls
Chain of full-length P. pyralis luciferase (P08659 whole entry N50D/N119G/S548I/K549A/L550V, looked up): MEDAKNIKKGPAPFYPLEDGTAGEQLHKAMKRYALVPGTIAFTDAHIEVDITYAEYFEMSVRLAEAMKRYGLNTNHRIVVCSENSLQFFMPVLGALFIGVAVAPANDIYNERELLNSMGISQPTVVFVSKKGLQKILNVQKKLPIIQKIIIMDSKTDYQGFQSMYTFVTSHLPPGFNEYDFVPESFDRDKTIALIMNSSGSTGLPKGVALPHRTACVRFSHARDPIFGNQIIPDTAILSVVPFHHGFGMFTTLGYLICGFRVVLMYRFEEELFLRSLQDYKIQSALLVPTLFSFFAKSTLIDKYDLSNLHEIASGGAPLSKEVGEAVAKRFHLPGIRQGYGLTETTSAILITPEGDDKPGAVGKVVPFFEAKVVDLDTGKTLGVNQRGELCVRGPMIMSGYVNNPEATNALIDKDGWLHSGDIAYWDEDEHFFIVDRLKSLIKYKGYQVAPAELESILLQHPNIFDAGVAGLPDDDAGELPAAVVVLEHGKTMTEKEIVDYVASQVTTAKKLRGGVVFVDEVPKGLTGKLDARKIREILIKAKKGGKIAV

T1 sequence (Q92915 1-252 isoform Q92915-2): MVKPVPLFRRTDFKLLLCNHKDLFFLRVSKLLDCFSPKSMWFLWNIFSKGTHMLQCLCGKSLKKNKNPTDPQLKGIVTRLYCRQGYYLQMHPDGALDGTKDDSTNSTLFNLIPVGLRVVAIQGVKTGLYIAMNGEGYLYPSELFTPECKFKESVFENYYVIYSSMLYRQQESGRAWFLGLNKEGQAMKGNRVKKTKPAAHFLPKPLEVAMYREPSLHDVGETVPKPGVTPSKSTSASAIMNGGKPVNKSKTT
T1 sequence (Q9UQD0 1763-1976 limits assumed): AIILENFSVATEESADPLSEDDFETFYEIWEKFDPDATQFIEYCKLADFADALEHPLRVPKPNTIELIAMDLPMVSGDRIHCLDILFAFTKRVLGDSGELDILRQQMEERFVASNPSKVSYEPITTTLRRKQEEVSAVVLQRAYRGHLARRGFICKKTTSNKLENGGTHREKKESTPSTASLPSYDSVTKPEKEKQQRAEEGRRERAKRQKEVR

| SMILES | Z-score (LCA primary screening) ([1]; 30 µM, 384-well, average of primary screening (n = 2), vs on-plate 0.3% DMSO) | dose-response behavior of repurchased compounds ([1]; 10-point dose response 0.25-50 µM, Clone V cells) | Split Luciferase Assay Z-score Set 1 [1] | Split Luciferase Assay % Lum Set 1 [1] [%] | Split Luciferase Assay Z-score Set 2 [1] | Split Luciferase Assay %Lum Set 2 [1] [%] | IMin (% Luminescence) ([1]; antagonists, Clone V cells, 384-well, normalized to DMSO) | Split Luciferase Assay %Lum Avg [1] [%] | action toward the FGF14:Nav1.6 C-tail interaction ([1]; dose-dependency validation using fresh compound samples) | IC50 ([1]; estimated, 8-point dose response 0.25-30 µM, n = 4 per concentration, library compounds, read-out: IC50) [µM] | IC50 ([1]; repurchased compounds, 10-point dose response 0.25-50 µM, n = 8 per concentration, Clone V cells, 384-well, read-out: in-cell IC50) [µM] | viability at 16 h, 30 µM (in vitro) [%] | Toxicity Assay Z-score (CTB cell viability) (Clone V cells) | Luciferase Assay % Lum (full-length luciferase counter-screen) [2] [%] | Luciferase Assay Z-score (full-length luciferase counter-screen) [2] |
| --- | --- | --- | --- | --- | --- | --- | --- | --- | --- | --- | --- | --- | --- | --- | --- |
| C[C@@H](Oc1cc(-c2cnn(C3CCNCC3)c2)cnc1N)c1c(Cl)ccc(F)c1Cl [Crizotinib, reference compound] | −5.29 | purely inhibitory effects | -5.24 | 35.11 | -5.34 | 34.33 | 34.72 | 34.72 | acted as antagonists | 12.2 | 15.5 | 102 | 0.27 | 91.93 | -1.03 |
| CC(=O)O[C@@]12CO[C@@H]1C[C@H](O)[C@@]1(C)C(=O)[C@H](O)C3=C(C)[C@@H](OC(=O)[C@H](O)[C@@H](NC(=O)OC(C)(C)C)c4ccccc4)C[C@@](O)([C@@H](OC(=O)c4ccccc4)[C@H]21)C3(C)C [Docetaxel] |  |  | 6.00 | 174.26 | 4.48 | 155.01 |  | 164.63 |  |  |  | 107 | 0.98 | 101.54 | 0.20 |
| CCCCCCCCc1ccc(CCC(N)(CO)CO)cc1 [Fingolimod] |  |  | -0.06 | 99.25 | 0.58 | 107.15 |  | 103.20 |  |  |  | 110 | 1.42 | 94.97 | -0.64 |
| Nc1ccccc1NC(=O)c1ccc(CNc2nccc(-c3cccnc3)n2)cc1 [MGCD0103] |  |  | -1.82 | 77.51 | -1.96 | 75.94 |  | 76.73 |  |  |  | 104 | 0.52 | 90.12 | -1.27 |
| CS(=O)(=O)c1ccc(C2=C(c3ccccc3)C(=O)OC2)cc1 [ROFECOXIB] |  |  | 1.78 | 122.08 |  |  |  | 87.57 |  |  |  | 109 | 1.28 | 102.66 | 0.34 |
| Oc1c2ccccc2c2c3c(cccc13)N=N2 [SP600125] |  |  | 0.99 | 112.30 | -1.20 | 85.31 |  | 98.80 |  |  |  | 109 | 1.21 | 110.92 | 1.40 |
| CO[C@H]1C[C@@H]2CC[C@@H](C)[C@@](O)(O2)C(=O)C(=O)N2CCCC[C@H]2C(=O)O[C@H]([C@H](C)C[C@@H]2CC[C@@H](O)[C@H](OC)C2)CC(=O)[C@H](C)/C=C(\C)[C@@H](O)[C@@H](OC)C(=O)[C@H](C)C[C@H](C)/C=C/C=C/C=C/1C [Sirolimus] |  |  | 1.26 | 115.56 | 0.41 | 105.07 |  | 110.32 |  |  |  | 103 | 0.38 | 80.58 | -2.49 |
| Cc1cc(Nc2cc(N3CCN(C)CC3)nc(Sc3ccc(NC(=O)C4CC4)cc3)n2)[nH]n1 [TOZASERTIB] |  |  | -1.55 | 80.77 | -6.02 | 26.01 |  | 53.39 |  |  |  | 106 | 0.86 | 73.72 | -3.37 |
